pEC50: −log10 of the molar value.
Target: T1, KCC3 (Homo sapiens, UniProt Q9UHW9)
T1 construct: expressed in transfected cells; host or cells: HEK-293
T1 sequence (Q9UHW9 1-1150): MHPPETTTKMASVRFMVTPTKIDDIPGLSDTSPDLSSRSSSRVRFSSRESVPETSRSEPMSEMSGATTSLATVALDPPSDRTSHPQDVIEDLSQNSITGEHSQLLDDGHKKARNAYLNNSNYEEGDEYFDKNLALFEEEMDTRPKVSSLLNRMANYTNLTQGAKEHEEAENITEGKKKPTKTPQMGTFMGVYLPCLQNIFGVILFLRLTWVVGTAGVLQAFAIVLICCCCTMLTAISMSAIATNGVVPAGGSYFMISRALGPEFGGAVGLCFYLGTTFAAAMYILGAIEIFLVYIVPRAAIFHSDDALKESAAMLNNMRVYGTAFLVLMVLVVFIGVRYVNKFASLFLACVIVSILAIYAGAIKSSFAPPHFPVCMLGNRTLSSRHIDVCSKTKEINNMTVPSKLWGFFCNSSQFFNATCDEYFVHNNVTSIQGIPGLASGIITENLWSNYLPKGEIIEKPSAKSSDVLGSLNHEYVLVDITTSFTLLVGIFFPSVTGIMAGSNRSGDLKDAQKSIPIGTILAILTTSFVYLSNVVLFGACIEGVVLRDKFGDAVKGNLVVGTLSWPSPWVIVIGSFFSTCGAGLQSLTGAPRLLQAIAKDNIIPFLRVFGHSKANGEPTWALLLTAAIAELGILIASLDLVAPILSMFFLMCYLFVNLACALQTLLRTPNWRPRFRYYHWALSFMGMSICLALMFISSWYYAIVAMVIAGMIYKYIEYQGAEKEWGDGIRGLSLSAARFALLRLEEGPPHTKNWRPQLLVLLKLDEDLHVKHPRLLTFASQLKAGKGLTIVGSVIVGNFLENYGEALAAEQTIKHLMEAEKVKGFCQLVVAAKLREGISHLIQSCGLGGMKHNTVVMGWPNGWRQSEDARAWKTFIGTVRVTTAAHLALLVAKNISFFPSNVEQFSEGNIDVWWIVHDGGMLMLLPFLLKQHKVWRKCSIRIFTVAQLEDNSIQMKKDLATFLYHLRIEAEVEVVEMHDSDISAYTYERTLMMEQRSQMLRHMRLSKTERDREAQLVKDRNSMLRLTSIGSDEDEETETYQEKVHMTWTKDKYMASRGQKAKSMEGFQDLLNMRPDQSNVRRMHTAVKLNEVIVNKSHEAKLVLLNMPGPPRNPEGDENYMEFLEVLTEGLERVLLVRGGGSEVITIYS
Assay: Tl+ flux assay in HEK-293 cells expressing KCC3
Assay type: cell-based
Conditions: read-out: concentration at which effects on KCC3 were seen (EC50 chart, FIG. 1G)
Protocol: FLIPR TI Flux assay. HEK-293 cells were washed with HBSS, and then incubated with loading buffer containing TI sensitive fluorescent dye (https://www.moleculardevices.com), 20 μM bumetanide 20 μM ouabain and 2.5 mM probenecid for 1 h at room temperature (RT) under control conditions or with drugs in the dark using a FlexStation 3 microplate reader (Molecular Devices) and imaged […] for 30 min. Stimulus buffer was added containing 5 mM K^+/0.5 mM Tl^+ and cells were imaged every 1.5 over a 190 second time course The initial rate Tl^+ uptake (Relative Fluorescence Units (RFU) per second) was determined following addition of the stimulus buffer as outlined previously (Conway et al., 2017, supra) (Lee et al., 2022, supra).
Several studies have shown that the activity and plasma membrane accumulation of KCC2 is potentiated via phosphorylation of S940, a process mediated by the activity of protein kinase C and protein phosphatase 1 (Lee et al., 2011, supra; Lee et al., J Biol Chem 282, 29777-29784 (2007); Moore et al., Proc. Natl. Acad. Sci. U.S.A 115, 10166-10171 (2018); Moore et al., Trends Neurosci. 40, 555-571 (2017); Silayeva et al., Proc. Natl. Acad. Sci. U.S.A 112, 3523-3528 (2015)). […] Compared to KCC2, effects on KCC3, KCC4, and NKCC1 were only seen at concentrations more than 35-fold that of KCC2 (≥100 μM) (FIG. 1G).

C[C@@H]1CN(c2nc3c(c(Nc4ccc(C5CCCCC5)cc4)n2)COC3)CCO1 [Compound A, (R)—N-(4-cyclohexylphenyl)-2-(2-methylmorpholino)-5,7-dihydrofuro[3,4-d]pyrimidin-4-amine]
pEC50: ≤ 4.00
